Results as given in patent US8791108B2, “Inhibitors of human immunodeficiency virus replication” (priority 2011, dated 2014).
Where two headings read alike, the source gives them in different places.

Tested on: recombinant NL-Rluc virus
Assay: Inhibition of HIV replication (NL-RLuc luciferase reporter virus, MT-2 cells)
Format: cell-based
Details: Human immunodeficiency virus 1, MT2, 120 h

SMILES	EC50 (read-out: Activity) [µM]	EC50 (read-out: EC50 μM) [µM]
Cc1nc2cc(C(=O)Nc3ccccc3)nn2c(-c2cc(F)c3c(c2C)CCCO3)c1[C@H](OC(C)(C)C)C(=O)O [Example 123, (2S)-2-(tert-butoxy)-2-(7-(8-fluoro-5-methylchroman-6-yl)-5-methyl-2-(phenylcarbamoyl)pyrazolo[1,5-a]pyrimidin-6-yl)acetic acid]	< 0.1	
Cc1nc2cc(C(=O)NCc3ccccn3)nn2c(-c2cc(F)c3c(c2C)CCCO3)c1[C@H](OC(C)(C)C)C(=O)O [Example 104, (2S)-2-(tert-butoxy)-2-(7-(8-fluoro-5-methylchroman-6-yl)-5-methyl-2-((pyridin-2-ylmethyl)carbamoyl)pyrazolo[1,5-a]pyrimidin-6-yl)acetic acid]	> 1	
Cc1nc2cc(C(=O)NCCC(C)C)nn2c(-c2cc(F)c3c(c2C)CCCO3)c1[C@H](OC(C)(C)C)C(=O)O [Example 49, (2S)-2-(tert-butoxy)-2-(7-(8-fluoro-5-methylchroman-6-yl)-2-(isopentylcarbamoyl)-5-methylpyrazolo[1,5-a]pyrimidin-6-yl)acetic acid]	< 0.1	
Cc1nc2cc(C(=O)NCC3CCN(C(=O)C4CC4)CC3)nn2c(-c2cc(F)c3c(c2C)CCCO3)c1[C@H](OC(C)(C)C)C(=O)O [Example 58, (2S)-2-(tert-butoxy)-2-(2-(((1-(cyclopropanecarbonyl)piperidin-4-yl)methyl)carbamoyl)-7-(8-fluoro-5-methylchroman-6-yl)-5-methylpyrazolo[1,5-a]pyrimidin-6-yl)acetic acid]	> 1	
Cc1nc2cc(C(=O)NCc3csc(-c4ccccc4)n3)nn2c(-c2cc(F)c3c(c2C)CCCO3)c1[C@H](OC(C)(C)C)C(=O)O [Example 45, (2S)-2-(tert-butoxy)-2-(7-(8-fluoro-5-methylchroman-6-yl)-5-methyl-2-(((2-phenylthiazol-4-yl)methyl)carbamoyl)pyrazolo[1,5-a]pyrimidin-6-yl)acetic acid]	< 0.1	
Cc1nc2cc(C(=O)NCc3ccc(Cl)c(Cl)c3)nn2c(-c2cc(F)c3c(c2C)CCCO3)c1[C@H](OC(C)(C)C)C(=O)O [Example 109, (2S)-2-(tert-butoxy)-2-(2-((3,4-dichlorobenzyl)carbamoyl)-7-(8-fluoro-5-methylchroman-6-yl)-5-methylpyrazolo[1,5-a]pyrimidin-6-yl)acetic acid]	< 0.1	
Cc1nc2cc(C(=O)NCCC(C)(C)C)nn2c(-c2cc(F)c3c(c2C)CCCO3)c1[C@H](OC(C)(C)C)C(=O)O [Example 62, (2S)-2-(tert-butoxy)-2-(2-((3,3-dimethylbutyl)carbamoyl)-7-(8-fluoro-5-methylchroman-6-yl)-5-methylpyrazolo[1,5-a]pyrimidin-6-yl)acetic acid]	< 0.1	0.013
Cc1nc2cc(C(=O)NCCC3(O)CCCC3)nn2c(-c2cc(F)c3c(c2C)CCCO3)c1[C@H](OC(C)(C)C)C(=O)O [Example 134, (2S)-2-(tert-butoxy)-2-(7-(8-fluoro-5-methylchroman-6-yl)-2-((2-(1-hydroxycyclopentyl)ethyl)carbamoyl)-5-methylpyrazolo[1,5-a]pyrimidin-6-yl)acetic acid]	> 1	
Cc1cc(CNC(=O)c2cc3nc(C)c([C@H](OC(C)(C)C)C(=O)O)c(N4CCC(C)(C)CC4)n3n2)ccc1F [Example 151, (S)-2-(tert-Butoxy)-2-(7-(4,4-dimethylpiperidin-1-yl)-2-((4-fluoro-3-methylbenzyl)carbamoyl)-5-methylpyrazolo[1,5-a]pyrimidin-6-yl)acetic acid]	< 0.1	
Cc1nc2cc(C(=O)NCc3cccc(Cl)c3)nn2c(-c2cc(F)c3c(c2C)CCCO3)c1[C@H](OC(C)(C)C)C(=O)O [Example 54, (2S)-2-(tert-butoxy)-2-(2((3-chlorobenzyl)carbamoyl)-7-(8-fluoro-5-methylchroman-6-yl)-5-methylpyrazolo[1,5-a]pyrimidin-6-yl)acetic acid]	< 0.1	
Cc1nc2cc(C(=O)NCc3ncc(F)cc3F)nn2c(-c2cc(F)c3c(c2C)CCCO3)c1[C@H](OC(C)(C)C)C(=O)O [Example 36, (2S)-2-(tert-butoxy)-2-(2-(((3,5-difluoropyridin-2-yl)methyl)carbamoyl)-7-(8-fluoro-5-methylchroman-6-yl)-5-methylpyrazolo[1,5-a]pyrimidin-6-yl)acetic acid]	0.1 to 1	0.255
Cc1nc2cc(C(=O)NCCC(C)(C)C)nn2c(-c2ccc3c(c2Cl)NCCO3)c1[C@H](OC(C)(C)C)C(=O)O [Example 144, (2S)-2-(tert-Butoxy)-2-(7-(5-chloro-3,4-dihydro-2H-benzo[b][1,4]oxazin-6-yl)-2-((3,3-dimethylbutyl)carbamoyl)-5-methylpyrazolo[1,5-a]pyrimidin-6-yl)acetic acid]	0.1 to 1	0.122
Cc1nc2cc(C(=O)N3CCN(Cc4ccccc4)CC3)nn2c(-c2cc(F)c3c(c2C)CCCO3)c1[C@H](OC(C)(C)C)C(=O)O [Example 94, (2S)-2-(2-(4-benzylpiperazine-1-carbonyl)-7-(8-fluoro-5-methylchroman-6-yl)-5-methylpyrazolo[1,5-a]pyrimidin-6-yl)-2-(tert-butoxy)acetic acid]	0.1 to 1	
Cc1nc2cc(C(=O)N[C@H]3C[C@@H]3c3ccccc3)nn2c(-c2cc(F)c3c(c2C)CCCO3)c1[C@H](OC(C)(C)C)C(=O)O [Example 56, (2S)-2-(tert-butoxy)-2-(7-(8-fluoro-5-methylchroman-6-yl)-5-methyl-2-(((1S,2R)-2-phenylcyclopropyl)carbamoyl)pyrazolo[1,5-a]pyrimidin-6-yl)acetic acid]	< 0.1	
Cc1nc2cc(C(=O)NCCC3CCOCC3)nn2c(-c2cc(F)c3c(c2C)CCCO3)c1[C@H](OC(C)(C)C)C(=O)O [Example 129, (2S)-2-(tert-butoxy)-2-(7-(8-fluoro-5-methylchroman-6-yl)-5-methyl-2-((2-(tetrahydro-2H-pyran-4-yl)ethyl)carbamoyl)pyrazolo[1,5-a]pyrimidin-6-yl)acetic acid]	0.1 to 1	
Cc1nc2cc(C(=O)N3CCN(CCc4ccccc4)CC3)nn2c(-c2cc(F)c3c(c2C)CCCO3)c1[C@H](OC(C)(C)C)C(=O)O [Example 90, (2S)-2-(tert-butoxy)-2-(7-(8-fluoro-5-methylchroman-6-yl)-5-methyl-2-(4-phenethylpiperazine-1-carbonyl)pyrazolo[1,5-a]pyrimidin-6-yl)acetic acid]	0.1 to 1	
Cc1ccc(CNC(=O)c2cc3nc(C)c([C@H](OC(C)(C)C)C(=O)O)c(-c4cc(F)c5c(c4C)CCCO5)n3n2)cc1 [Example 5, (2S)-2-(tert-butoxy)-2-(7-(8-fluoro-5-methylchroman-6-yl)-5-methyl-2-((4-methylbenzyl)carbamoyl)pyrazolo[1,5-a]pyrimidin-6-yl)acetic acid]	< 0.1	
Cc1nc2cc(C(=O)N(C)Cc3cccnc3)nn2c(-c2cc(F)c3c(c2C)CCCO3)c1[C@H](OC(C)(C)C)C(=O)O [Example 97, (2S)-2-(tert-butoxy)-2-(7-(8-fluoro-5-methylchroman-6-yl)-5-methyl-2-(methyl(pyridin-3-ylmethyl)carbamoyl)pyrazolo[1,5-a]pyrimidin-6-yl)acetic acid]	> 1	
Cc1nc2cc(C(=O)NS(=O)(=O)Cc3ccccc3)nn2c(-c2cc(F)c3c(c2C)CCCO3)c1[C@H](OC(C)(C)C)C(=O)O [Example 14, (2S)-2-(2-((benzylsulfonyl)carbamoyl)-7-(8-fluoro-5-methylchroman-6-yl)-5-methylpyrazolo[1,5-a]pyrimidin-6-yl)-2-(tert-butoxy)acetic acid]	> 1	
Cc1ccccc1CN(C)C(=O)c1cc2nc(C)c([C@H](OC(C)(C)C)C(=O)O)c(-c3cc(F)c4c(c3C)CCCO4)n2n1 [Example 19, (2S)-2-(tert-butoxy)-2-(7-(8-fluoro-5-methylchroman-6-yl)-5-methyl-2-(methyl(2-methylbenzyl)carbamoyl)pyrazolo[1,5-a]pyrimidin-6-yl)acetic acid]	< 0.1	
Cc1nc2cc(C(=O)Nc3cc(-c4ccccc4)nn3C)nn2c(-c2cc(F)c3c(c2C)CCCO3)c1[C@H](OC(C)(C)C)C(=O)O [Example 84, (2S)-2-(tert-butoxy)-2-(7-(8-fluoro-5-methylchroman-6-yl)-5-methyl-2-((1-methyl-3-phenyl-1H-pyrazol-5-yl)carbamoyl)pyrazolo[1,5-a]pyrimidin-6-yl)acetic acid]	< 0.1	
Cc1nc2cc(C(=O)NCc3ccc(-c4ccccc4)cc3)nn2c(-c2cc(F)c3c(c2C)CCCO3)c1[C@H](OC(C)(C)C)C(=O)O [Example 70, (2S)-2-(2-(([1,1′-biphenyl]-4-ylmethyl)carbamoyl)-7-(8-fluoro-5-methylchroman-6-yl)-5-methylpyrazolo[1,5-a]pyrimidin-6-yl)-2-(tert-butoxy)acetic acid]	< 0.1	
Cc1nc2cc(C(=O)NCC3CCOCC3)nn2c(-c2cc(F)c3c(c2C)CCCO3)c1[C@H](OC(C)(C)C)C(=O)O [Example 101, (2S)-2-(tert-butoxy)-2-(7-(8-fluoro-5-methylchroman-6-yl)-5-methyl-2-(((tetrahydro-2H-pyran-4-yl)methyl)carbamoyl)pyrazolo[1,5-a]pyrimidin-6-yl)acetic acid]	0.1 to 1	
Cc1nc2cc(C(=O)N(C)Cc3ccccc3)nn2c(-c2cc(F)c3c(c2C)CCCO3)c1[C@H](OC(C)(C)C)C(=O)O [Example 33, (2S)-2-(2-(benzyl(methyl)carbamoyl)-7-(8-fluoro-5-methylchroman-6-yl)-5-methylpyrazolo[1,5-a]pyrimidin-6-yl)-2-(tert-butoxy)acetic acid]	< 0.1	
Cc1nc2cc(C(=O)NCc3ccc(C(F)(F)F)cc3)nn2c(-c2cc(F)c3c(c2C)CCCO3)c1[C@H](OC(C)(C)C)C(=O)O [Example 66, (2S)-2-(tert-butoxy)-2-(7-(8-fluoro-5-methylchroman-6-yl)-5-methyl-2-((4-(trifluoromethyl)benzyl)carbamoyl)pyrazolo[1,5-a]pyrimidin-6-yl)acetic acid]	< 0.1	
Cc1nc2cc(C(=O)NCC3CCCCC3)nn2c(-c2cc(F)c3c(c2C)CCCO3)c1[C@H](OC(C)(C)C)C(=O)O [Example 16, (2S)-2-(tert-butoxy)-2-(2-((cyclohexylmethyl)carbamoyl)-7-(8-fluoro-5-methylchroman-6-yl)-5-methylpyrazolo[1,5-a]pyrimidin-6-yl)acetic acid]	< 0.1	
